# Results reported in paper PMC10568017, “A quest for the stereo-electronic requirements for selective agonism for the neurotrophin receptors TrkA and TrkB in 17-spirocyclic-dehydroepiandrosterone derivatives” (Frontiers in Molecular Neuroscience, 2023).
# Columns and labels:
# [1] = system: PC12 cells; test: CellTox assay, survival of PC12 cells under serum deprivation; format: cell-based; conditions: compound 500 nM, 24 h, after 4 h serum starvation; NGF 100 ng/mL as control (Figure 9)
# [2] = molecular target: T1, CYP2C9 (Homo sapiens, UniProt P11712); test: Isozyme-specific CYP450 inhibition, CYP2C9; format: in vitro ADME; conditions: 1 μM, 60 min, recombinant human CYP450 (Baculosomes)
# T1 construct: purchased Thermo Fisher Scientific; host or cells: Baculosomes
# Protocol: Human cytochrome P450 (CYP450) isoenzymes were expressed in Baculosomes®, purchased from Thermo Fisher Scientific (Waltham, MA, USA). All reagents were handled and prepared according to the manufacturer's protocol. Test compounds were assessed at 1 μM for their effects on CYP1A2, CYP2A6, CYP2C9, CYP2C19, CYP2D6, and CYP3A4. Approximately 1 μM was selected based on our ADMET standard operating procedures and protocols also published previously (Rogdakis et al., [2022]; Yilmaz et al., [2022]). CYP450-enzymatic activity was determined based on the kinetic model for each CYP450 isoform (Cohen et al., [2003]; Veith et al., [2009]). Reactions took place in triplicates at 20°C. For this, NADP^+ (10 mM in 100 mM potassium phosphate, pH 8.0) was converted into NADPH by the regeneration system present (glucose-6-phosphate at 333 mM and glucose-6-phosphate-dehydrogenase at 30 U/mL in 100 mM potassium phosphate, pH 8.0). Following the addition of the fluorescent substrate, signal monitoring over time took place immediately (<2 min) at suitable excitation and emission wavelengths (Agilent BioTek Lionheart FX). CYP450 inhibition (%) was determined based on the reaction rates (fluorescence intensity changes per unit time). In total, n = 60 measurements […] were acquired (t = 60 min).
# % Inhibition=(1-X/A)×100%
# X is the rate observed in the presence of the test compound.
# A is the rate observed in the presence of the negative (solvent, DMSO) control.
# [3] = system: NIH-3T3 TrkB-expressing cell line; test: CellTox Green cytotoxicity assay in NIH-3T3 cells stable transfected with TrkB under serum deprivation; format: cell-based; conditions: compound 1 μM, 24 h, after 24 h serum starvation; BDNF 500 ng/mL as control
# Procedure, shortened: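 TrkB-transfected NIH-3T3 cells were serum-starved for 24 h, then exposed 24 h to compounds at 1 μM or BDNF 500 ng/mL as control. Dead cells stained with CellTox Green and total cells with Hoechst 33342, imaged by microscopy. CellTox-positive counts normalised to total cells per image.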
# T1 sequence (P11712 whole entry): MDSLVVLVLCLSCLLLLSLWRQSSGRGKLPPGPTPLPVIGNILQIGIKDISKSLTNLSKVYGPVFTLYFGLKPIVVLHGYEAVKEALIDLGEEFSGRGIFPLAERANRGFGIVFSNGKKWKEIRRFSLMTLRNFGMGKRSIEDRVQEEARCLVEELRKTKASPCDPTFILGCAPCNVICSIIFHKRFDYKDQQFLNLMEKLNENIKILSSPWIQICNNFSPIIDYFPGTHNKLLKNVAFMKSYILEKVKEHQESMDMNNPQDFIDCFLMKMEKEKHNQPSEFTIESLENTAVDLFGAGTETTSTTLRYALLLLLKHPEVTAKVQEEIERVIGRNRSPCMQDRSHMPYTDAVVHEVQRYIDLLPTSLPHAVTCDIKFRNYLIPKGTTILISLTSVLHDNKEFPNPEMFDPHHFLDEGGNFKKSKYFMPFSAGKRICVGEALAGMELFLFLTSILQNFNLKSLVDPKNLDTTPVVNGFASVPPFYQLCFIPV
smiles,measurement,setting,value
"C[C@]12CC[C@H](O)CC1=CC[C@@H]1[C@@H]2CC[C@@]2(C)[C@H]1CC[C@@]21CC=C(Cn2cc(Cc3ccccc3)nn2)CO1 [ENT-A055, (3S,17R)-5′-[(4-benzyl-1H-1,2,3-triazol-1-yl)methyl]-3′,6′-dihydrospiro[5-androstene-17,2′-pyran]-3-ol]",protection of PC12 cells from serum deprivation-induced cell death (CellTox),[1],without showing any antiapoptotic activity in PC12 cells
same,inhibition for CYP2C9,[2],moderate-to-strong inhibition
same,protection of NIH-3T3-TrkB cells from serum deprivation-induced cell death (CellTox),[3],"significantly reduce cell death levels compared to the serum-free control, comparable to the BDNF action"
